Where two headings read alike, the source gives them in different places.
What was measured:
[1] = system: human pancreatic MiaPaCa-2; assay: antitumor activity against subcutaneous MiaPaCa-2 xenografts; format: in vivo, nude mice; settings: XL-147 50 mg/kg po QD, 21 days; 50 mg/kg
Protocol: The human pancreatic cancer cell line MiaPaCa-2 (American Type Culture Collection, Manassas Va.), was cultured in MEM medium containing 10% fetal bovine serum, 1% essential amino acid, 1% sodium pyruvate (Life Technologies, Carlsbad, Calif.). […] Cells were re-suspended in PBS (Life Technologies, Carlsbad, Calif.) and then mixed 1:1 with Matrigel (BD Biosciences, San Jose, Calif.). Cells were stored at 4° C. until implantation. MiaPaCa-2 cells (10×10^6 in a 200 μl PBS:Matrigel (1:1) suspension) were subcutaneously injected into the right flank area of female nude (Crl:NU-Foxn1nu) mice (6-8 weeks old, Charles River Laboratories, Wilmington, Mass.). All mice in this study were used according to the guidelines approved by the EMD-Serono Institutional Care and Animal Use Committee (IACUC), #07-003. Developing tumors located in the right flank area of female nude mice were measured over time with digital calipers. […] The remaining tumor-bearing mice were randomized into seven experimental groups (n=9), so that each group had the same mean tumor volume. […] The treatments began on the seventh day following implantation of the Miapaca-2 cells, which was designated as Day 0 for data evaluation purposes. […] Body weights and tumor volumes were assessed twice per week post treatment initiation. […] Efficacy was determined by analyzing tumor volumes and the percent ΔT/ΔC (% ΔT/ΔC). Tumor volume was determined by using the tumor length (1) and width (w) measurements and calculating the volume with the equation 1*w^2/2. The length was measured along the longest axis of the tumor and width was measured perpendicular to that length. The mean percent of actual tumor growth inhibited by the treatments was calculated as follows: [% ΔT/ΔC=(([…]))×100%], where TV=tumor volume, f=final, i=initial and Ctrl=control group. Tolerability was assessed by regarding percent body weight difference during the treatment period. Percent body weight difference was calculated as follows: [% Body weight difference=(BWc-BWi)/BWi×100%], where BW=body weight, c=current, i=initial.

[2] = system: human colon carcinoma HCT 116; assay: HCT116 tumor growth in fluorescence molecular tomography study; format: in vivo, SCID mice; settings: (2a) 50 mg/kg oral daily day 11 to day 17; p=0.023
[3] = system: human primary colon tumors CR-LRB-009C; assay: antitumor activity against subcutaneous CR-LRB-009C xenografts; format: in vivo
Protocol: The human primary colon carcinoma CR-LRB-009C tumor model was established by implanting (SC) small tumor fragments and was maintained in SCID female mice using serial passages.
(§1) Treatments were administered on measurable tumors. […] Mice were checked daily, and adverse clinical reactions noted.
(§2) Animal body weights included the tumor weight.
(§3) The primary efficacy end points are ΔT/ΔC, percent median regression, partial and complete regressions (PR and CR). Statistical analyses were performed on SAS system release 8.2 for SUN4 via Everstat V5 software and SAS 9.2 software. A probability less than 5% (p<0.05) was considered as significant.

[4] = system: human primary colon tumors CR-LRB-013P; assay: antitumor activity against subcutaneous CR-LRB-013P xenografts; format: in vivo
Protocol: The human primary colon carcinoma CR-LRB-013P tumor model was established by implanting (SC) small tumor fragments and was maintained in SCID female mice using serial passages.
as §1, §2, §3

[5] = system: HCT116 tumor vascular permeability; assay: tumor vascular permeability, Evans Blue extravasation / Dextran-Fitc; format: in vivo, SCID mice; settings: (2a) 50 mg/kg oral daily day 11 to day 13
Protocol: HCT116 tumor cells were implanted subcutaneously in the intra-scapular region in SCID mice. […] Each agent was given by oral route on a daily schedule. Tumor growth was monitored throughout the experiment by callipering the tumors. To quantify tumor vascular permeability, tumors were excised under ketamine/Xylazine (120/6 mg/kg ip) anesthesia at day 13, 4 hours post last treatment, 30 min after 0.5% Evans Blue iv injection, and 2 min post Dextran-Fitc 100 mg/kg iv injection. Tumors were then snap frozen, and 25 μm sections obtained for fluorescence quantification. Tumors sections were imaged with Icyte at 488 nm for vascular Dextran-Fitc determination and at 633 nm for Evans-Blue extravasation determination. Respective fluorescence were quantified as the sum of integral phantoms of fluorescence intensity and expressed as the mean ratio of Evans-Blue signal/Dextran-Fitc Signal.

[6] = chemical stability of dosing stock solution; format: physicochemical; settings: in the dark at 4° C.
Protocol: Compound (2a) formulation was prepared in water for injection. The stock solution was chemically stable 7 days in the dark at 4° C. […] The pH of the final solution was 3. […]

[7] = system: human colon carcinoma HCT 116
Protocol: Mice were over 18 g at start of treatment after an acclimatization time of at least 5 days. […] The mice were housed on a 12 hours light/dark cycle.
Human colon carcinoma HCT 116 cells were purchased at American Type Culture Collection [(ATCC), Rockville, Md., USA). The HCT 116 cells were cultured in Dulbecco's modified Eagle's medium (DMEM) (Invitrogen).
The animals required to begin a given experiment were pooled and implanted monolaterally on day 0. Treatments were administered on measurable tumors. The solid tumors were allowed to grow to the desired volume range (animals with tumors not in the desired range were excluded). The mice were then pooled and unselectively distributed to the various treatment and control groups. […] The dosages are expressed in mg/kg, based on the body weight at start of therapy. Mice were checked daily, and adverse clinical reactions noted. Each group of mice was weighed as a whole daily until the weight nadir was reached. Then, groups were weighed once to thrice weekly until the end of the experiment. Tumors were measured with a caliper 2 to 3 times weekly until final sacrifice for sampling time, tumor reached 2000 mm^3 or until the animal died (whichever comes first). Solid tumor volumes were estimated from two-dimensional tumor measurements and calculated according to the following equation:
Changes in tumor volume for each treated (T) and control (C) group were calculated for each tumor by subtracting the tumor volume on the day of first treatment (staging day) from the tumor volume on the specified observation day. The median ΔT is calculated for the treated group, and the median ΔC is calculated for the control group. Then the ratio ΔT/ΔC is calculated and expressed as a percentage. The dose is considered as therapeutically active when ΔT/ΔC is lower than 40% and very active when ΔT/ΔC is lower than 10%.
The percent of tumor regression is defined as the % of tumor volume decrease in the treated group at a specified observation day compared to its volume on the first day of treatment. At a specific time point and for each animal, % regression is calculated. The median % regression is then calculated for the group using the following equation:
Partial regression: Regressions are defined as partial if the tumor volume decreases to 50% of the tumor volume at the start of treatment.
Complete regression: The CR is achieved when tumor volume=0 mm^3 (CR is considered when tumor volume cannot be recorded).

[8] = system: PC-3, U87-MG, A2058, WM-266-4 and MCF7 xenografts; settings: oral administration alone; PTEN-deficient PC-3, U87-MG, A2058, WM-266-4 or PIK3CA mutated MCF7 xenografts; cited from earlier work
[9] = (2a) 75 mg/kg PO daily days 11-21
[10] = as single agents or used in combination
[11] = (2a) 75 mg/kg PO daily days 33-50
[12] = study 1, (2a) 50 mg/kg PO daily days 11-18
[13] = study 1, (2a) 75 mg/kg PO daily days 11-18
[14] = study 2, (2a) 50 mg/kg PO daily days 11-18
[15] = study 2, (2a) 75 mg/kg PO daily days 11-18
[16] = study 3, (2a) 50 mg/kg PO daily days 11-20
[17] = study 3, (2a) 75 mg/kg PO daily days 11-20

Structure (SMILES): COc1ccc(Cl)c(Nc2nc3ccccc3nc2NS(=O)(=O)c2cccc(NC(=O)C(C)(C)N)c2)c1 [Compound (2a), N-(3-{[(3-{[2-chloro-5-(methoxy)phenyl]amino}quinoxalin-2-yl)amino]sulfonyl}phenyl)-2-methylalaninamide]
- % ΔT/ΔC [1]: 71.2%
- ΔT/ΔC at the end of study [2]: 36%
- Average body weight change in % per mouse at nadir [3, 9]: −15.8 (21) %
- Drug death [3, 9]: 0/7
- Median ΔT/ΔC in % day 21 [3, 9]: 39%
- Regressions Complete [3, 9]: 0/7
- Regressions Partial [3, 9]: 0/7
- tolerability [3, 10]: tolerated, inducing some BWL but not reaching toxicity
- Average body weight change in % per mouse at nadir [4, 11]: −9.2 (50) %
- Drug death [4, 11]: 0/7
- Median ΔT/ΔC in % day 50 [4, 11]: 53%
- Regressions Complete [4, 11]: 0/7
- Regressions Partial [4, 11]: 0/7
- tolerability [4, 10]: tolerated, inducing some BWL but not reaching toxicity
- decrease of the Evans-Blue/Dextran-Fitc ratio compared to control [5]: −8%
- stock solution chemically stable ([6]; in 1N HCl and water for injection, pH 3): 7 days
- stock solution chemically stable ([6]; in water for injection): 7 days
- Average body weight change in % per mouse at nadir [7, 12]: −5.8 (18) %
- Drug death [7, 12]: 0/7
- Median ΔT/ΔC in % day 18 [7, 12]: 62%
- Regressions Complete [7, 12]: 0/7
- Regressions Partial [7, 12]: 0/7
- Average body weight change in % per mouse at nadir [7, 13]: −8.3 (18) %
- Drug death [7, 13]: 0/7
- Median ΔT/ΔC in % day 18 [7, 13]: 80%
- Regressions Complete [7, 13]: 0/7
- Regressions Partial [7, 13]: 0/7
- tolerability ([7]; study 1, as single agents or used in combination): well-tolerated, inducing minimal BWL
- Average body weight change in % per mouse at nadir [7, 14]: −7.7 (18) %
- Drug death [7, 14]: 0/7
- Median ΔT/ΔC in % day 18 [7, 14]: 52%
- Regressions Complete [7, 14]: 0/7
- Regressions Partial [7, 14]: 0/7
- Average body weight change in % per mouse at nadir [7, 15]: −6.7 (18) %
- Drug death [7, 15]: 0/7
- Median ΔT/ΔC in % day 18 [7, 15]: 56%
- Regressions Complete [7, 15]: 0/7
- Regressions Partial [7, 15]: 0/7
- tolerability ([7]; study 2, as single agents): well-tolerated, inducing minimal BWL
- Average body weight change in % per mouse at nadir [7, 16]: −7.8 (19) %
- Drug death [7, 16]: 0/10
- Median ΔT/ΔC in % day 20 [7, 16]: 66%
- Regressions Complete [7, 16]: 0/10
- Regressions Partial [7, 16]: 0/10
- Average body weight change in % per mouse at nadir [7, 17]: −8.5 (20) %
- Drug death [7, 17]: 0/10
- Median ΔT/ΔC in % day 20 [7, 17]: 64%
- Regressions Complete [7, 17]: 0/10
- Regressions Partial [7, 17]: 0/10
- tolerability ([7]; study 3, as single agents): well-tolerated, inducing minimal BWL
- tumor growth [8]: inhibits tumor growth
